The source of these data is patent US20220290085A1, “CELL-SENSORY BIOSCAFFOLDS, FABRICATION METHODS AND APPLICATIONS OF SAME” (BOARD OF TRUSTEES OF THE UNIVERSITY OF ARKANSAS, priority 2019, published 2022).

For test [1], the system named is breast cancer cells (MCF7). The test is described as follows: Doxorubicin drug cytotoxicity in cell culture. Particulars: drug cytotoxicity assessment, FIG. 23. In kind it is cell-based, human. The procedure:
Impedance Measurement for Doxorubicin Drug Effect on Breast Cancer Cell Lines: This test was performed to investigate the effect of a well-known chemotherapy drug Doxorubicin on two different cancer cell lines. Doxorubicin (DOX, C27H29NO11), also called Adriamycin™, is a popular chemotherapy drug for treating several types of cancer including breast cancer via triggering the cancer cell death. This drug was used to quantify the drug effect on breast cancer cells' metabolism in response to stresses from different dosages of the DOX, via monitoring the impedance signal change from the cancer cells before and after the DOX treatment. The drug cytotoxicity was assessed to determine the concentration of 2.0 μM, which the cancer cells start to die in a proper pace that can enable us to quantitatively characterize the DOX effect on the cancer cell's metabolism and apoptosis directly on the smart bioscaffold, as shown in FIG. 23.

Test [2] concerns MCF7. Description: Impedance on TiO2 nanowire bioscaffold sensor of DOX-treated MCF7 cells. In kind it is cell-based, human. To be noted: DOX 2 μM 24 hrs, then glucose 5.5 mM for 35 minutes, 1×PBS, FIG. 24. On the procedure:
(§1) To investigate the cell impedance change due to the DOX, the two cell lines were first cultured to reach about 90% confluence and then the DOX (2 μM) was added over two time-intervals, about 24 hours and about 48 hours. The cells were then harvested using trypsin and counted using the hemocytometer and trypan blue stain to control the cell number. The cells were then suspended in about 10 mL of 1×PBS with the TiO2 nanowires sensor for about 35 minutes, and the impedance was tested likewise from about 40 kHz to about 1 MHz. The DOX is supposed to decrease the MCF7 impedance due to cell's resistance to the DOX. This is because the overexpressed P-glycoprotein 1 (P-gp), also called multidrug resistance protein 1 (MDR1) or ATP-binding cassette sub-family B member 1 (ABCB1) or cluster of differentiation 243 (CD243), can pump the foreign molecules out of the MCF7 cell.
(§2) The second set of experiment was done as in the first step, with glucose (5.5 mM) in the cell suspensions to investigate the cell impedance correspondence to glucose effect after being treated with DOX. The biosensors were done after about 35 minutes in the cell suspension, with the impedance parameters same as described previously.

The test system of another test is MDA-MB231. The test is described as follows: Impedance on TiO2 nanowire bioscaffold sensor of DOX-treated MDA-MB231 cells. The format is cell-based, human. Particulars: DOX 2 μM 24 hrs, FIG. 25. On the procedure: as §1, §2
Test [3] concerns MCF7. To be noted: MCF7 vs MDA-MB231; cited from earlier work.

In the case of `COc1cccc2c1C(=O)c1c(O)c3c(c(O)c1C2=O)C[C@@](O)(C(=O)CO)C[C@@H]3O[C@H]1C[C@H](N)[C@H](O)[C@H](C)O1` [Doxorubicin], the “concentration at which the cancer cells start to die in a proper pace” value in test [1] was found to be 2.0 µM. The “impedance on the bioscaffold at low frequency after DOX pre-treatment and glucose incubation” value in the test with MCF7 [2] was “higher impedance”. Further, in the test on MDA-MB231 (glucose 5.5 mM), the “response to glucose after being pre-treated with DOX” value is “no significant response to glucose”. In the test on MDA-MB231 (then glucose 5.5 mM for 35 minutes, 1×PBS), the “impedance on the bioscaffold after DOX pre-treatment and glucose incubation” value is given as “lower impedance”. Besides, in the test with MCF7 [3], the “resistance of MCF7 to DOX compared with MDA-MB231” value is on record as “more resistive”.
